According to patent publication US8802661B2, “C-28 amides of modified C-3 betulinic acid derivatives as HIV maturation inhibitors” (priority 2010, dated 2014):

Tested on: recombinant NL4-3 virus (Renilla luciferase in nef, Gag P373S)
Test: HIV Cell Culture Assay (luciferase reporter virus in MT-2 cells)
Format: cell-based
Settings: NL43, read-out: EC50 Group
In short: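 Cells grown in serum-supplemented RPMI were exposed to graded inhibitor concentrations during a 4-5 day infection. Antiviral effect was then derived from luminescence after adding a combined lysis and dual-luciferase substrate mixture to each well.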

C=C(C)[C@@H]1CC[C@]2(C(=O)NCCN3CCCC3=O)CC[C@]3(C)[C@H](CC[C@@H]4[C@@]5(C)CC=C(c6ccc(C(=O)O)cc6)C(C)(C)[C@@H]5CC[C@]43C)[C@@H]12 [Example 46, 4-((1R,3aS,5aR,5bR,7aR,11aS,11bR,13aR,13bR)-5a,5b,8,8,11a-pentamethyl-3a-(2-(2-oxopyrrolidin-1-yl)ethylcarbamoyl)-1-(prop-1-en-2-yl)-2,3,3a,4,5,5a,5b,6,7,7a,8,11,11a,11b,12,13,13a,13b-octadecahydro-1H-cyclopenta[a]chrysen-9-yl)benzoic acid]
EC50: < 0.1 µM

C=C(C)[C@@H]1CC[C@]2(C(=O)NCCN(CCC(=O)O)C(C)C)CC[C@]3(C)[C@H](CC[C@@H]4[C@@]5(C)CC=C(c6ccc(C(=O)O)cc6)C(C)(C)[C@@H]5CC[C@]43C)[C@@H]12 [Example 96, 4-((1R,3aS,5aR,5bR,7aR,11aS,11bR,13aR,13bR)-3a-(2-((2-carboxyethyl)(isopropyl)amino)ethylcarbamoyl)-5a,5b,8,8,11a-pentamethyl-1-(prop-1-en-2-yl)-2,3,3a,4,5,5a,5b,6,7,7a,8,11,11a,11b,12,13,13a,13b-octadecahydro-1H-cyclopenta[a]chrysen-9-yl)benzoic acid]
EC50: < 0.1 µM

C=C(C)[C@@H]1CC[C@]2(C(=O)N3CCN(C)CC3)CC[C@]3(C)[C@H](CC[C@@H]4[C@@]5(C)CC=C(c6ccc(C(=O)O)cc6)C(C)(C)[C@@H]5CC[C@]43C)[C@@H]12 [Example 10, 4-((1R,3aS,5aR,5bR,7aR,11aS,11bR,13aR,13bR)-5a,5b,8,8,11a-pentamethyl-3a-(4-methylpiperazine-1-carbonyl)-1-(prop-1-en-2-yl)-2,3,3a,4,5,5a,5b,6,7,7a,8,11,11a,11b,12,13,13a,13b-octadecahydro-1H-cyclopenta[a]chrysen-9-yl)benzoic acid]
EC50: < 0.1 µM

C=C(C)[C@@H]1CC[C@]2(C(=O)NC(C)c3nnc(C)[nH]3)CC[C@]3(C)[C@H](CC[C@@H]4[C@@]5(C)CC=C(c6ccc(C(=O)O)cc6)C(C)(C)[C@@H]5CC[C@]43C)[C@@H]12 (stereo partly drawn) [Example 44, 4-((1R,3aS,5aR,5bR,7aR,11aS,11bR,13aR,13bR)-5a,5b,8,8,11a-pentamethyl-3a-(1-(5-methyl-4H-1,2,4-triazol-3-yl)ethylcarbamoyl)-1-(prop-1-en-2-yl)-2,3,3a,4,5,5a,5b,6,7,7a,8,11,11a,11b,12,13,13a,13b-octadecahydro-1H-cyclopenta[a]chrysen-9-yl)benzoic acid]
EC50: < 0.1 µM

C=C(C)[C@@H]1CC[C@]2(C(=O)NCCN(CCO)CCO)CC[C@]3(C)[C@H](CC[C@@H]4[C@@]5(C)CC=C(c6ccc(C(=O)O)cc6)C(C)(C)[C@@H]5CC[C@]43C)[C@@H]12 [Example 76, 4-((1R,3aS,5aR,5bR,7aR,11aS,11bR,13aR,13bR)-3a-(2-(bis(2-hydroxyethyl)amino)ethylcarbamoyl)-5a,5b,8,8,11a-pentamethyl-1-(prop-1-en-2-yl)-2,3,3a,4,5,5a,5b,6,7,7a,8,11,11a,11b,12,13,13a,13b-octadecahydro-1H-cyclopenta[a]chrysen-9-yl)benzoic acid]
EC50: < 0.1 µM

C=C(C)[C@@H]1CC[C@]2(C(=O)Nc3nncs3)CC[C@]3(C)[C@H](CC[C@@H]4[C@@]5(C)CC=C(c6ccc(C(=O)O)cc6)C(C)(C)[C@@H]5CC[C@]43C)[C@@H]12 [Example 51, 4-((1R,3aS,5aR,5bR,7aR,11aS,11bR,13aR,13bR)-3a-(1,3,4-thiadiazol-2-ylcarbamoyl)-5a,5b,8,8,11a-pentamethyl-1-(prop-1-en-2-yl)-2,3,3a,4,5,5a,5b,6,7,7a,8,11,11a,11b,12,13,13a,13b-octadecahydro-1H-cyclopenta[a]chrysen-9-yl)benzoic acid]
EC50: < 0.1 µM
